{"source": "patent US20110124888A1", "about": "“STYRYLBENZOFURAN DERIVATIVES AS INHIBITORS FOR BETA-AMYLOID FIBRIL FORMATION AND PREPARATION METHOD THEREOF” (Korea Institute of Science and Technology, priority 2008, published 2011)", "target": "T1, beta-amyloid 42 (Aβ42) (Homo sapiens, UniProt P05067)", "T1 construct": "Beta-amyloid 42 (Aβ42) was dissolved in dimethylsulfoxide (DMSO)", "T1 sequence (P05067 672-713 limits assumed)": "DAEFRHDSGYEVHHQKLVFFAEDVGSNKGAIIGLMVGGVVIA", "assay": "Inhibitory effect on the formation of beta-amyloid fibrils in vitro (ThT fluorescence assay)", "format": "biochemical", "details": "for pIC50: In vitro ThT analysis (Aβ42: 25 μM); for inhibition at 10 µM: read-out: % Inhibition (10 μM); for % inhibition against the beta-amyloid 42 formation compared with curcumin: Tables 1 to 6, relative to curcumin", "procedure": "In order to investigate the inhibitory effect on the formation of beta-amyloid fibrils, the inventive compounds were examined as follows:\nBeta-amyloid 42 (Aβ42) was dissolved in dimethylsulfoxide (DMSO) to form a […] Aβ42 stock solution. In addition, ThT (thioflavin T) was dissolved in distilled water to a concentration of 1 mM and subsequently diluted with 50 mM glycin buffer (pH 8.5) to yield a 5 μM ThT stock solution.\n45 μL of PBS (phosphate buffer saline, pH 7.4) was added to each of a 96 well fluorescence microplate (white, F-bottom). 5 μL of the 250 μM Aβ42 stock solution was added to each well. The final concentration of each compound obtained in Examples was in a range of 10 to 0.001 μM by adding 2 μL of a solution, which is prepared by dissolving the subject compounds obtained in Examples in DMSO, to each well. At this time, the final concentration of Aβ42 in each well was 25 μM. The plate was then incubated at room temperature for 1 hr, and 150 μL of the 5 μM ThT stock solution was added to each well.\nThe fluorescence intensity of each well was determined with the multi label fluorescence counter (LS-55 Luminescence spectrometer, Perkin Elmer) at an excitation wavelength of 450 nm (excitation slit width: 10 nm) and an emission wavelength of 482 nm (emission slit width: 10 nm), while adjusting counting time to 1 second. The control group was prepared by adding PBS solution, Aβ42 and DMSO, without adding the inventive compound. % Inhibition on the formation of beta-amyloid fibrils was calculated in accordance with the following equation and IC5O was calculated by using GraphPad Prism version 4.03 Program.\n% Inhibition=[1−(C−D)/(A−B)]×100 Equation 1%\nA (control group): fluorescence intensity in a group treated with PBS solution, Aβ42, and DMSO\nB (blank): fluorescence intensity in a group treated with PBS solution and DMSO\nC (experimental group): fluorescence intensity in a group treated with PBS solution, Aβ42, DMSO, and the inventive compound\nD (compensation value to the experimental group): fluorescence intensity in a group treated with PBS solution, DMSO, and the inventive compound", "key": {"[1]": {"details": "10 μM compound, Aβ42 25 μM, experiment of Table 5"}, "[2]": {"details": "10 μM compound, Aβ42 25 μM, experiment of Table 2"}, "[3]": {"details": "10 μM compound, Aβ42 25 μM, experiment of Table 3"}, "[4]": {"details": "10 μM compound, Aβ42 25 μM, experiment of Table 6"}, "[5]": {"details": "10 μM compound, Aβ42 25 μM, experiment of Table 4"}}, "note": "pIC50: −log10 of the molar value. Where a name gives a salt, the structure may show the parent alone. Read-outs that look alike come from different tables or passages of the source.", "data": [{"smiles": "CN(C)c1ccc(C=Cc2cc3ccc(O)cc3o2)cc1", "note": "[Compound 10, 6-hydroxy-2-(4-dimethylaminostyryl)benzofuran]", "values": [{"measurement": "pIC50", "setting": "experiment of Table 1", "result": 5.44}]}, {"smiles": "COc1ccc(C=Cc2cc3ccc(C)cc3o2)cc1OC", "note": "[Compound 65, 6-methyl-2-(3,4-dimethoxystyryl)benzofuran]", "values": [{"measurement": "inhibition at 10 µM", "setting": "[1]", "result": 67.5, "unit": "%"}, {"measurement": "pIC50", "setting": "experiment of Table 5", "result": 6.05}, {"measurement": "% inhibition against the beta-amyloid 42 formation compared with curcumin", "result": "superior % inhibition"}]}, {"smiles": "CNc1ccc(C=Cc2cc3cc(OC)c(OC)cc3o2)cc1", "note": "[Compound 70, 5,6-dimethoxy-2-(4-methylaminostyryl)benzofuran]", "values": [{"measurement": "inhibition at 10 µM", "setting": "[1]", "result": 25.8, "unit": "%"}]}, {"smiles": "CCN(CC)c1ccc(C=Cc2cc3cc(O)ccc3o2)cc1", "note": "[Compound 56, 5-hydroxy-2-(4-diethylaminostyryl)benzofuran]", "values": [{"measurement": "inhibition at 10 µM", "setting": "[2]", "result": 81.6, "unit": "%"}, {"measurement": "pIC50", "setting": "experiment of Table 2", "result": 5.89}, {"measurement": "% inhibition against the beta-amyloid 42 formation compared with curcumin", "result": "superior % inhibition"}]}, {"smiles": "CNc1ccc(C=Cc2cc3cc(C)ccc3o2)cc1", "note": "[Compound 40, 5-methyl-2-(4-methylaminostyryl)benzofuran trifluoroacetate]", "values": [{"measurement": "inhibition at 10 µM", "setting": "[3]", "result": 70.2, "unit": "%"}, {"measurement": "inhibition at 10 µM", "setting": "[4]", "result": 73.5, "unit": "%"}, {"measurement": "pIC50", "setting": "experiment of Table 6", "result": 5.30}]}, {"smiles": "COc1ccc(C=Cc2cc3cc(I)ccc3o2)cc1OC", "note": "[Compound 50, 5-iodo-2-(3,4-dimethoxystyryl)benzofuran]", "values": [{"measurement": "inhibition at 10 µM", "setting": "[5]", "result": 62.4, "unit": "%"}, {"measurement": "pIC50", "setting": "experiment of Table 4", "result": 5.24}]}, {"smiles": "CNc1ccc(C=Cc2cc3ccccc3o2)cc1", "note": "[Compound 25, 2-(4-methylaminostyryl)benzofuran trifluoroacetate]", "values": [{"measurement": "inhibition at 10 µM", "result": 59, "unit": "%"}]}, {"smiles": "Nc1ccc(C=Cc2cc3cc(Cl)ccc3o2)cc1", "note": "[Compound 29, 5-chloro-2-(4-aminostyryl)benzofuran]", "values": [{"measurement": "inhibition at 10 µM", "setting": "[5]", "result": 82.8, "unit": "%"}, {"measurement": "pIC50", "setting": "experiment of Table 4", "result": 5.70}]}, {"smiles": "CN(C)c1ccc(C=Cc2cc3cc(Br)ccc3o2)cc1", "note": "[Compound 7, 5-bromo-2-(4-dimethylaminostyryl)benzofuran]", "values": [{"measurement": "pIC50", "setting": "experiment of Table 1", "result": 6.33}, {"measurement": "% inhibition against the beta-amyloid 42 formation compared with curcumin", "result": "superior % inhibition"}]}, {"smiles": "COc1ccc(C=Cc2cc3cc(C)ccc3o2)cc1", "note": "[Compound 42, 5-methyl-2-(4-methoxystyryl)benzofuran]", "values": [{"measurement": "inhibition at 10 µM", "setting": "[2]", "result": 69.7, "unit": "%"}, {"measurement": "pIC50", "setting": "experiment of Table 2", "result": 4.80}]}, {"smiles": "CCN(CC)c1ccc(C=Cc2cc3ccccc3o2)cc1", "note": "[Compound 26, 2-(4-diethylaminostyryl)benzofuran]", "values": [{"measurement": "inhibition at 10 µM", "setting": "[3]", "result": 4.54, "unit": "%"}]}, {"smiles": "CN(C)c1ccc(C=Cc2cc3cc(I)ccc3o2)cc1", "note": "[Compound 8, 5-iodo-2-(4-dimethylaminostyryl)benzofuran]", "values": [{"measurement": "pIC50", "setting": "experiment of Table 1", "result": 6.77}, {"measurement": "% inhibition against the beta-amyloid 42 formation compared with curcumin", "result": "superior % inhibition"}]}, {"smiles": "COc1ccc(C=Cc2cc3cc(OC)c(OC)cc3o2)cc1", "note": "[Compound 54, 5,6-dimethoxy-2-(4-methoxystyryl)benzofuran]", "values": [{"measurement": "inhibition at 10 µM", "setting": "[4]", "result": 77.8, "unit": "%"}, {"measurement": "pIC50", "setting": "experiment of Table 6", "result": 6.04}, {"measurement": "% inhibition against the beta-amyloid 42 formation compared with curcumin", "result": "superior % inhibition"}]}, {"smiles": "CNc1ccc(C=Cc2cc3cc(OC)ccc3o2)cc1OC", "note": "[Compound 36, 5-methoxy-2-(3-methoxy-4-methylaminostyryl)benzofuran]", "values": [{"measurement": "inhibition at 10 µM", "setting": "[1]", "result": 24.5, "unit": "%"}]}, {"smiles": "COc1ccc2cc(/C=C/c3ccc(N(C)C)cc3)oc2c1", "note": "[hydrochloride of Ex. 9]", "values": [{"measurement": "inhibition at 10 µM", "setting": "[4]", "result": 62.9, "unit": "%"}, {"measurement": "pIC50", "setting": "experiment of Table 6", "result": 5.72}, {"measurement": "% inhibition against the beta-amyloid 42 formation compared with curcumin", "result": "superior % inhibition"}]}, {"smiles": "CCN(CC)c1ccc(C=Cc2cc3cc(OC)ccc3o2)cc1", "note": "[Compound 35, 5-methoxy-2-(4-diethylaminostyryl)benzofuran]", "values": [{"measurement": "inhibition at 10 µM", "setting": "[2]", "result": 55.1, "unit": "%"}, {"measurement": "pIC50", "setting": "experiment of Table 2", "result": 5.93}]}, {"smiles": "CCN(CC)c1ccc(C=Cc2cc3cc(C)ccc3o2)cc1", "note": "[Compound 41, 5-methyl-2-(4-diethylaminostyryl)benzofuran]", "values": [{"measurement": "inhibition at 10 µM", "setting": "[3]", "result": "< 1", "unit": "%"}]}, {"smiles": "COc1ccc(C=Cc2cc3ccccc3o2)cc1OC", "note": "[Compound 28, 2-(3,4-dimethoxystyryl)benzofuran]", "values": [{"measurement": "inhibition at 10 µM", "setting": "[1]", "result": 67.4, "unit": "%"}, {"measurement": "pIC50", "setting": "experiment of Table 5", "result": 5.48}]}, {"smiles": "Cc1ccc2cc(C=Cc3ccc(N)cc3)oc2c1", "note": "[Compound 61, 6-methyl-2-(4-aminostyryl)benzofuran trifluoroacetate]", "values": [{"measurement": "inhibition at 10 µM", "setting": "[3]", "result": 57.5, "unit": "%"}]}, {"smiles": "COc1ccc2cc(C=Cc3ccc(OC)c(OC)c3)oc2c1", "note": "[Compound 59, 6-methoxy-2-(3,4-dimethoxystyryl)benzofuran]", "values": [{"measurement": "inhibition at 10 µM", "setting": "[4]", "result": 79.9, "unit": "%"}, {"measurement": "pIC50", "setting": "experiment of Table 6", "result": 5.99}, {"measurement": "% inhibition against the beta-amyloid 42 formation compared with curcumin", "result": "superior % inhibition"}]}, {"smiles": "CN(C)c1ncc(/C=C/c2nc3ccccc3o2)s1", "note": "[Comparative Example 1, reference compound]", "values": [{"measurement": "inhibition at 10 µM", "setting": "10 μM compound, Aβ42 25 μM, experiment of Table 7", "result": 63.4, "unit": "%"}, {"measurement": "pIC50", "setting": "experiment of Table 7", "result": 5.47}]}, {"smiles": "COc1ccc(C=Cc2cc3cc(OC)c(OC)cc3o2)cc1OC", "note": "[Compound 55, 5,6-dimethoxy-2-(3,4-dimethoxystyryl)benzofuran]", "values": [{"measurement": "inhibition at 10 µM", "setting": "[1]", "result": 51.4, "unit": "%"}]}, {"smiles": "CNc1ccc(C=Cc2cc3cc(OCCOCCF)ccc3o2)cc1", "note": "[Compound 44, 5-(2-(2-fluoroethoxy)ethoxy)-2-(4-methylaminostyryl)benzofuran]", "values": [{"measurement": "inhibition at 10 µM", "setting": "[4]", "result": 84.7, "unit": "%"}, {"measurement": "pIC50", "setting": "experiment of Table 6", "result": 5.83}, {"measurement": "% inhibition against the beta-amyloid 42 formation compared with curcumin", "result": "superior % inhibition"}]}, {"smiles": "CN(C)c1ccc(C=Cc2cc3ccc(Cl)cc3o2)cc1", "note": "[Compound 13, 6-chloro-2-(4-dimethylaminostyryl)benzofuran]", "values": [{"measurement": "pIC50", "setting": "experiment of Table 1", "result": 5.49}]}, {"smiles": "Nc1ccc(C=Cc2cc3ccccc3o2)cc1", "note": "[Compound 24, 2-(4-aminostyryl)benzofuran trifluoroacetate]", "values": [{"measurement": "inhibition at 10 µM", "result": 70.7, "unit": "%"}]}, {"smiles": "CN(C)c1ccc(C=Cc2cc3ccccc3o2)cc1", "note": "[Compound 1, 2-(4-dimethylaminostyryl)benzofuran]", "values": [{"measurement": "pIC50", "setting": "experiment of Table 1", "result": 5.64}]}, {"smiles": "Cc1ccc2cc(C=Cc3ccc(N(C)C)cc3)oc2c1", "note": "[Compound 11, 6-methyl-2-(4-dimethylaminostyryl)benzofuran]", "values": [{"measurement": "pIC50", "setting": "experiment of Table 1", "result": 5.46}]}]}
